Assay results taken from patent US20240368181A1, “QUINOXALINE DERIVATIVES AND USES THEREOF” (Black Diamond Therapeutics, Inc., priority 2021, published 2024).

Experiments:
Format in all cases: cell-based
[1] = test system: SNU-16 (FGFR2-amplification) cells; assay: cell proliferation assay (CellTiterGlo), SNU-16 cells; settings: Homo sapiens, 72 hours
Procedure, shortened: (§1)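 To assess antiproliferative activity, plated cells receive test compound across a concentration range, with DMSO as vehicle control. Remaining viable cells are quantified from intracellular ATP by luminescence. Growth relative to vehicle-treated cells gives the IC50.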

[2] = test system: UM-UC-14 (FGFR3-S249C) cells; assay: cell proliferation assay (CellTiterGlo), UM-UC-14 cells; settings: UMUC14, 72 h
Procedure, shortened: as §1

[3] = test system: RT-112 (FGFR3-Tacc3 fusion) cells; assay: cell proliferation assay (CellTiterGlo), RT-112 cells; settings: Homo sapiens, RT-112, RT112 cells, 72 hours
Procedure, shortened: as §1

[4] = test system: DMS-114 (FGFR1 overexpression) cells; assay: cell proliferation assay (CellTiterGlo), DMS-114 cells
Procedure, shortened: as §1

| Compound | IC50 [1] | IC50 [2] | IC50 [3] | IC50 ([4]; Homo sapiens, DMS-114, 72 h) | IC50 ([4]; 72 hours) |
| --- | --- | --- | --- | --- | --- |
| Cc1nc2ccc(Oc3ccc4ncc(-c5cnn(C6CN(CC7(F)CC7)C6)c5)nc4c3Cl)cc2[nH]1 [Compound 220] | 20 to 100 nM | 20 to 100 nM | 20 to 100 nM | ≥ 400 nM |  |
| Cc1nc2ccc(Oc3ccc4ncc(-c5cnn(CC6CC(N(C)C)C6)c5)nc4c3Cl)cc2[nH]1 (stereo not drawn) [Compound 297] | 20 to 100 nM | 20 to 100 nM | 20 to 100 nM | ≥ 400 nM |  |
| C=C1COC(Cn2cc(-c3cnc4ccc(Oc5ccc6nc(C)[nH]c6c5)c(Cl)c4n3)cn2)OC1 [Compound 298] | 100 to 400 nM | 20 to 100 nM | 20 to 100 nM | ≥ 400 nM |  |
| Cc1nc2ccc(Oc3c(C)cc4ncc(-c5cnn(CC6CCN(C)CC6)c5)nc4c3Cl)cc2[nH]1 [Compound 334] | ≥ 400 nM | ≥ 400 nM | ≥ 400 nM | ≥ 400 nM |  |
| Cc1nc2ccc(Oc3ccc4ncc(-c5cnn(CC6CNCCO6)c5)nc4c3Cl)cc2[nH]1 (stereo not drawn) [Compound 273] | 20 to 100 nM | 20 to 100 nM | 20 to 100 nM | ≥ 400 nM |  |
| Cc1nc2ccc(Oc3ccc4ncc(-c5cnn(C6CC7(CNC7)C6)c5)nc4c3Cl)cc2[nH]1 [Compound 256] | 100 to 400 nM | 100 to 400 nM | 100 to 400 nM | ≥ 400 nM |  |
| Cc1nc2ccc(Oc3ccc4ncc(-c5cnn([C@H]6C[C@H]7CC[C@@H](C6)N7)c5)nc4c3Cl)cc2[nH]1 [Compound 362] | 20 to 100 nM | 20 to 100 nM | 20 to 100 nM | 100 to 400 nM |  |
| Cc1nc2ccc(Oc3ccc4ncc(-c5cnn(C6CCN(C7COC7)CC6)c5)nc4c3Cl)cc2[nH]1 [Compound 340] | < 20 nM | 20 to 100 nM | < 20 nM | 100 to 400 nM |  |
| Cc1nc2ccc(Oc3ccc4ncc(-c5cnn(C6CCNCC6)c5)nc4c3C3CC3)cc2[nH]1 [Compound 289] | 20 to 100 nM | 20 to 100 nM | 20 to 100 nM | 100 to 400 nM |  |
| CN=S(C)(=O)N1CCC(n2cc(-c3cnc4ccc(Oc5ccc6nc(C)[nH]c6c5)c(Cl)c4n3)cn2)CC1 (stereo not drawn) [Compound 86] | < 20 nM | < 20 nM | < 20 nM | 100 to 400 nM |  |
| Cc1nc2ccc(Oc3ccc4ncc(-c5cnn(CC6(C)CCOC6)c5)nc4c3Cl)cc2[nH]1 (stereo not drawn) [Compound 357] | 20 to 100 nM | 20 to 100 nM | 20 to 100 nM | ≥ 400 nM |  |
| Cc1nc2ccc(Oc3ccc4ncc(-c5cnn(CC6CC(F)(F)C6)c5)nc4c3C3=CCOCC3)cc2[nH]1 [Compound 100] | 20 to 100 nM | 20 to 100 nM | < 20 nM | 100 to 400 nM |  |
| Cc1nc2ccc(Oc3ccc4ncc(-c5cnn([C@H]6CC7(C[C@@H](O)C7)C6)c5)nc4c3Cl)cc2[nH]1 (stereo partly drawn) [Compound 123] | 20 to 100 nM | < 20 nM | 20 to 100 nM |  | 100 to 400 nM |
| Cc1nc2ccc(Oc3ccc4ncc(-c5cnn(CCC6CCN(CC(F)(F)F)CC6)c5)nc4c3Cl)cc2[nH]1 [Compound 296] | 20 to 100 nM | 20 to 100 nM | 20 to 100 nM | ≥ 400 nM |  |
| Cc1nc2ccc(Oc3ccc4ncc(-c5cnn(CC(=O)N6CCC(O)C6)c5)nc4c3Cl)cc2[nH]1 (stereo not drawn) [Compound 306] | 100 to 400 nM | 100 to 400 nM | 20 to 100 nM | ≥ 400 nM |  |
| Cc1nc2ccc(Oc3ccc4ncc(-c5cnn(C6CCC(F)(F)C6)c5)nc4c3Cl)cc2[nH]1 (stereo not drawn) [Compound 211] | 100 to 400 nM | 100 to 400 nM | 100 to 400 nM | ≥ 400 nM |  |
| Cc1nc2ccc(Oc3ccc4ncc(-c5cnn([C@H]6C[C@@H](N7C[C@@H]8C[C@H]7CO8)C6)c5)nc4c3Cl)cc2[nH]1 [Compound 204] | 20 to 100 nM | 20 to 100 nM | 20 to 100 nM | ≥ 400 nM |  |
| Cc1nc2ccc(Oc3ccc4ncc(-c5cnn(CCNCCO)c5)nc4c3Cl)cc2[nH]1 [Compound 350] | 100 to 400 nM | 100 to 400 nM | 20 to 100 nM | ≥ 400 nM |  |
| CN=S1(=O)CCC(n2cc(-c3cnc4ccc(Oc5ccc6nc(C)[nH]c6c5)c(Cl)c4n3)cn2)CC1 (stereo not drawn) [Compound 80] | 20 to 100 nM | 20 to 100 nM | 20 to 100 nM | ≥ 400 nM |  |
| CNC(=O)CN1CCC(n2cc(-c3cnc4ccc(Oc5ccc6nc(C)[nH]c6c5)c(Cl)c4n3)cn2)CC1 [Compound 322] | 20 to 100 nM | 20 to 100 nM | < 20 nM | ≥ 400 nM |  |
| Cc1nc2ccc(Oc3ccc4ncc(-c5cnn(CC6CCS(=O)(=O)CC6)c5)nc4c3Cl)cc2[nH]1 [Compound 385] | 20 to 100 nM | 20 to 100 nM | < 20 nM | 100 to 400 nM |  |
| Cc1nc2ccc(Oc3ccc4ncc(-c5cnn([C@H]6CCNC[C@@H]6F)c5)nc4c3C)cc2[nH]1 [Compound 288] | 20 to 100 nM | 20 to 100 nM | 20 to 100 nM | ≥ 400 nM |  |
| Cc1nc2ccc(Oc3ccc4ncc(-c5cnn(CC6CC(F)(F)C6)c5)nc4c3C3=CC(C)(C)OC3(C)C)cc2[nH]1 [Compound 90] | 20 to 100 nM | 20 to 100 nM | 20 to 100 nM | 100 to 400 nM |  |

Now from value to compound, other results behind:

| IC50 [1] | Compound | IC50 [2] | IC50 [3] | IC50 ([4]; Homo sapiens, DMS-114, 72 h) | IC50 ([4]; 72 hours) |
| --- | --- | --- | --- | --- | --- |
| 20 to 100 nM | Cc1nc2ccc(Oc3ccc4ncc(-c5cnn(CC(=O)N6CCC(F)(F)C6)c5)nc4c3Cl)cc2[nH]1 [Compound 287] | 20 to 100 nM | 20 to 100 nM | ≥ 400 nM |  |
| 20 to 100 nM | Cc1nc2ccc(Oc3ccc4ncc(-c5cnn(C(C)(C)CC#N)c5)nc4c3Cl)cc2[nH]1 [Compound 255] | 20 to 100 nM | 20 to 100 nM | ≥ 400 nM |  |
| 20 to 100 nM | Cc1nc2ccc(Oc3ccc4ncc(-c5cnn(CC(N)=O)c5)nc4c3Cl)cc2[nH]1 [Compound 326] | 100 to 400 nM | 100 to 400 nM | ≥ 400 nM |  |
| 100 to 400 nM | Cc1nc2ccc(Oc3ccc4ncc(-c5cnn(C6CC(F)(F)C6)c5)nc4c3Cl)cc2[nH]1 [Compound 205] | 100 to 400 nM | 100 to 400 nM | ≥ 400 nM |  |
| 20 to 100 nM | Cc1nc2ccc(Oc3ccc4ncc(-c5cnn(C(=O)OC(C)C)c5)nc4c3Cl)c(F)c2[nH]1 [Compound 141] | 100 to 400 nM | 100 to 400 nM | ≥ 400 nM |  |
| 20 to 100 nM | Cc1nc2ccc(Oc3ccc4ncc(-c5cnn(CC6CCC(F)(F)CC6)c5)nc4c3Cl)c(F)c2[nH]1 [Compound 152] | 20 to 100 nM | 20 to 100 nM | 100 to 400 nM |  |
| < 20 nM | Cc1nc2ccc(Oc3ccc4ncc(-c5cnn(C[C@@H](C)O)c5)nc4c3Cl)c(F)c2[nH]1 [Compound 130] | < 20 nM | < 20 nM | 100 to 400 nM |  |
| 20 to 100 nM | COC1CC(Cn2cc(-c3cnc4ccc(Oc5ccc6nc(C)[nH]c6c5)c(Cl)c4n3)cn2)C1 (stereo not drawn) [Compound 281] | 20 to 100 nM | 20 to 100 nM | ≥ 400 nM |  |
| 20 to 100 nM | Cc1nc2ccc(Oc3ccc4ncc(-c5cnn(C(C)(C)C(=O)C6CC[C@H](F)C6)c5)nc4c3Cl)cc2[nH]1 (stereo partly drawn) [Compound 195] | 20 to 100 nM | 20 to 100 nM | ≥ 400 nM |  |
| 20 to 100 nM | Cc1nc2ccc(Oc3ccc4ncc(-c5cnn(C6CN(C(=O)N(C)C)C6)c5)nc4c3Cl)cc2[nH]1 [Compound 184] | 20 to 100 nM | 20 to 100 nM | ≥ 400 nM |  |
